Test results published in BindingDB's records for patent US20230303494 (Academy of Military Medical Sciences, 2023).

target: Programmed cell death 1 ligand/protein 1 (Homo sapiens, UniProt Q9NZQ7+Q15116); assay: Activity of Compounds to Inhibit PD-1/PD-L1 Interaction
Sequence (Q9NZQ7 whole entry): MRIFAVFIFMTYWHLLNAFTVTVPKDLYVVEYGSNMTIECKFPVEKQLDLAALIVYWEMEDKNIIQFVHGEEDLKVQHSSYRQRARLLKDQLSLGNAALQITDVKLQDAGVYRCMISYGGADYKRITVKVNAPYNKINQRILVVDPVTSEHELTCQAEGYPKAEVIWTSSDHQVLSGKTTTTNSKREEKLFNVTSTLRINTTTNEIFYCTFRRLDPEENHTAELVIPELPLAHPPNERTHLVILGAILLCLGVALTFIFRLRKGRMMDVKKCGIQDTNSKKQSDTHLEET
Sequence (Q15116 whole entry): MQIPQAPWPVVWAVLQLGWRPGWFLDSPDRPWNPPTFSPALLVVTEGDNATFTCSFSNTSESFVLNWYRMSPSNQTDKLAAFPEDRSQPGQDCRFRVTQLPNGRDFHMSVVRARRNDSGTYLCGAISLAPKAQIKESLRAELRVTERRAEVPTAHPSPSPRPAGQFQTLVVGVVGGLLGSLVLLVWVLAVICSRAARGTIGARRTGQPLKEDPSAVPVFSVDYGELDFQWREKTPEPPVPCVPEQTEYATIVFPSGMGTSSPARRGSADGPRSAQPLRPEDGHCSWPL

**Q.** Cc1c(CNc2cc(OCc3cncc(C#N)c3)c(CNC(CO)C(=O)O)cc2Cl)cccc1-c1ccccc1 (stereo unspecified) [US20230303494, Compound 13] was tested. Which IC50 did it give?
**A.** 0.026 µM

**Q.** For COc1cc(NCc2cccc(-c3ccccc3)c2C)c(C)cc1CNC(CO)C(=O)O (stereo unspecified) [US20230303494, Compound 14], which IC50 is on record?
**A.** 0.253 µM

**Q.** With N#Cc1cncc(COc2cc(NCc3cccc(-c4ccccc4)c3Br)ccc2CNC(CO)C(=O)O)c1 (stereo unspecified) [US20230303494, Compound 31] as the molecule, how does the IC50 read?
**A.** 0.206 µM

**Q.** Cc1cc(CNC(CO)C(=O)O)c(OCc2cncc(C#N)c2)cc1NCc1cccc(-c2ccccc2)c1Br (stereo unspecified) [US20230303494, Compound 32] was tested. Which IC50 did it give?
**A.** 0.031 µM

**Q.** Which IC50 does the source give for Cc1cc(CNC(CO)C(=O)O)c(OCc2cncc(C#N)c2)cc1NCc1cccc(-c2ccc3c(c2)OCCO3)c1C (stereo unspecified) [US20230303494, Compound 35] here?
**A.** 0.044 µM

**Q.** How did the IC50 turn out when Cc1c(CNc2cc(OCc3cncc(C#N)c3)c(CNC(CO)C(=O)O)cc2Cl)cccc1-c1ccc2c(c1)OCCO2 (stereo unspecified) [US20230303494, Compound 36] was run?
**A.** 0.131 µM
